Patent US4581377A, “Fluorene derivatives” (Nippon Shinyaku Co., Ltd., priority 1983, dated 1986)
Read-outs that look alike come from different tables or passages of the source.

What was measured:
Acute Toxicity = conditions: rat, in vivo; rats, p.o.; seven days after oral administration
Experimental: Four male rats (SD strain) of six weeks age were used as a group and the LD50 values seven days after oral administration was calculated by Weil's method.

[1] = Action for formation of ulcer; set-up: species or system rat (male, SD strain); conditions: rat, in vivo, po
Experimental: (Action for formation of ulcer)
Male rats (SD strain) of five weeks age were fasted for 24 hours and the test compound (as a suspension in CMC; 0.5% concentration) was given orally at a dose of 1 ml/100 g body weight. After 24 hours, 5% pontamine sky blue (0.5 ml) was injected intravenously and, ten minutes thereafter, the rats were killed by anesthetizing with ether and their stomachs were removed therefrom. […] When at least one ulcer was observed, the ulcer formation was decided to be positive and, according to a Weil's method (four rats per group), UD50 (50% ulcer-forming dose) was determined.

acetic acid writhing = experiment: Acetic acid Writhing Method; format: in vivo, mouse (male, ddY strain); conditions: Mus musculus, read-out: Inhibition against Acetic acid writhing ED30
carrageenin edema = experiment: Effect on carrageenin edema; format: in vivo, rat (male, SD strain); conditions: Rattus norvegicus, po, read-out: Inhibition against Carrageenin edema ED30
Experimental: (Effect on carrageenin edema) One group consisting of 5 male rats of SD strain and of five weeks age was used in the experiment. Compounds to be tested were given orally and, three hours thereafter, 0.1 ml of 0.5% λ-carrageenin was injected at the right hind paw subcutaneously. After three hours, volume of the right hind paw was measured using a plethysmometer, then the volume of the hind paw before the carrageenin injection was deducted from the above measured value to obtain the degree of swelling (in ml), the average swelling inhibition rate of the groups treated with the compounds as compared with the control group was calculated and, using a method of least squares, ED30 was determined.

[2] = mice, i.p. (head), 0.6% acetic acid i.p. 3 h after oral compound (method), writhings over 20 min
[3] = rats, p.o., compound 3 h before carrageenin, paw volume after 3 h

SMILES: COc1ccc2c(c1)c(CC(=O)O)c(C)n2C(=O)c1ccc(Cl)cc1 [Indomethacin, reference compound]
- LD50 at 168 h (Acute Toxicity): 29 mg/kg
- TD50 at 24 h ([1]; rats, p.o., 24 h fasted, stomach observed 24 h after dosing, read-out: UD50 (50% ulcer-forming dose)): 4 mg/kg
- ED30 (acetic acid writhing; po): 2.3 mg/kg
- ED30 (carrageenin edema; 3 h): 7.1 mg/kg

SMILES: CC(O)CCc1ccc2c(c1)Cc1ccccc1-2 (stereo not shown) [Example 9, 4-(2-Fluorenyl)-butan-2-ol]
- LD50 at 168 h (Acute Toxicity): > 2000 mg/kg
- TD50 at 24 h [1]: 68.4 mg/kg
- ED30 (acetic acid writhing; [2]): 18.4 mg/kg
- ED30 (carrageenin edema; [3]): 17.3 mg/kg

SMILES: CC(O)C=Cc1ccc2c(c1)Cc1ccccc1-2 (stereo not shown) [Example 2, 4-(2-fluorenyl)-3-buten-2-ol]
- LD50 at 168 h (Acute Toxicity): 1680 mg/kg
- TD50 at 24 h [1]: 90 mg/kg
- ED30 (acetic acid writhing; [2]): 1.8 mg/kg
- ED30 (carrageenin edema; [3]): 28.3 mg/kg

SMILES: CC(=O)CCc1ccc2c(c1)Cc1ccccc1-2 [Example 3, 4-(2-fluorenyl)-butan-2-one]
- LD50 at 168 h (Acute Toxicity): > 2000 mg/kg
- TD50 at 24 h [1]: 182 mg/kg
- ED30 (acetic acid writhing; [2]): 37.2 mg/kg
- ED30 (carrageenin edema; [3]): 12.5 mg/kg
